The values below come from US11584737B2, “Heterocyclic compound” (TAKEDA PHARMACEUTICAL COMPANY LIMITED, priority 2018, dated 2023).

Assay [1] concerns the target T1, CDK12/CycK complex (Homo sapiens, UniProt Q9NYV4). Description: Measurement of CDK12 inhibitory activity by binding assay (TR-FRET, 66 nM BODIPY-FL-labeled AT-7519). The following applies: inhibitory rate against CDK12 at 1 μM test compound, 66 nM BODIPY-FL-labeled AT-7519, 2 nM CDK12/CycK. The procedure, abridged: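 His-tagged CDK12/CycK (2 nM) premixed with 66 nM BODIPY-FL-AT-7519 tracer, 0.2 nM Tb-streptavidin and 0.4 nM biotin-anti-His, then incubated with compound 120 min at room temperature. Tracer displacement read as BODIPY-FL/Tb TR-FRET ratio; percent inhibition normalized to no-compound control and 3 μM AT-7519 blank.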
In general terms: TR-FRET usually uses a lanthanide donor and a delayed reading to cut background.

Assay [2] concerns the target CDK12/CycK enzyme (Homo sapiens, UniProt Q9NYV4). Description: Measurement of CDK12/CycK inhibitory activity (ULight-4E-BP1 peptide phosphorylation, LANCE). Format: biochemical. The following applies: inhibitory rate against CDK12/CycK at 1 μM test compound, ATP 10 μM or 500 μM. As for the experimental part: Experimental Example 2: Measurement of CDK12/CycK Inhibitory Activity
A test compound dissolved in DMSO was added to a reaction solution (50 mM HEPES (pH 7.5), 10 mM MgCl2, 1 mM DTT, 0.01% Tween 20, 0.01% BSA) containing CDK12/CycK enzyme and ULight-labeled eIF4E-binding protein 1 (4E-BP1) (Thr37/Thr46) peptide (PerkinElmer), and the mixture was reacted at room temperature for 60 min. […] was added to give an ATP solution with a final concentration of 10 μM or 500 μM to start the enzyme reaction, and the mixture was reacted at room temperature for 60 min. A LANCE Detection buffer (PerkinElmer) containing europium-labeled anti-phosphorylation 4E-BP1 (Thr37/Thr46) antibody (PerkinElmer) and EDTA (final concentration 10 mM) was added to discontinue the reaction. After standing for 60 min, time decomposition fluorescence value (excitation 320 nm, emission 615 nm, 665 nm) was measured by Envision (PerkinElmer). The inhibitory rate (%) of the test compound against CDK12/CyclinK was calculated by the following formula. Inhibitory rate (%)=(1−(count of test compound−blank)÷(control−blank))×100
The count of the CDK12 enzyme reaction mixture under compound non-addition conditions is indicated as control, and the count under compound non-addition and CDK12/CycK enzyme non-addition conditions is indicated as blank.
The results measured by the above-mentioned method (inhibitory rate (%) of the signal value at 1 μM test compound relative to control is shown below.

Assay [3] concerns A2780 intracellular CTD pSer2. Nature of the assay: CTD pSer2 measurement using human ovarian cancer cell A2780 and In-Cell Western method. It counts as cell-based. The note with it: inhibitory rate against A2780 intracellular CTD pSer2 at 1 μM test compound, 4 hr. Here is the method: Experimental Example 3: CTD pSer2 Measurement Using Human Ovarian Cancer Cell A2780 and In-Cell Western Method
A2780 cells (ATCC) were seeded in a 96 well plate at 1.8×10^4 cells/well, and the cells were cultured overnight in a cell culture medium RPMI1640 (FUJIFILM Wako Pure Chemical Corporation) containing 10% FBS (fetal bovine serum) and 1% penicillin/streptomycin. A test compound dissolved in a cell medium was added, and the mixture was stood for 4 hr in a CO2 incubator (37° C.). The cells were fixed with ALTFiX (Falma) for 30 min, and washed 3 times with a washing buffer (20 mM Tris-HCl (pH 7.5), 500 mM NaCl, 0.1% Tween20). 0.1% Triton-X-100 diluted with PBS(−) was added and the mixture was incubated at room temperature for 15 min. Thereafter, a blocking buffer (LI-COR) was added, and the mixture was incubated at room temperature for 1 hr. An anti-CTD pS2 antibody (Abcam) suspended in an antibody diluent (blocking buffer: PBS(−)-diluted 0.1% Tween20=1:1) was added, and the mixture was incubated at room temperature for 1 hr. The mixture was […] with a washing buffer, IRDye800CW-labeled anti-goat antibody (LI-COR) was added, and the mixture was incubated at room temperature for 1 hr. The mixture was washed 3 times with a washing buffer, and the fluorescence wavelength at 800 nm was measured by Aerius (LI-COR).
The inhibitory rate (%) of the test compound against A2780 intracellular CTD pSer2 was calculated by the following formula. Inhibitory rate (%)=(1−(count of test compound−blank)÷(control−blank))×100
The count of the A2780 cell under compound non-addition conditions is indicated as control, and the count under compound non-addition and primary antibody non-addition conditions is indicated as blank.
The results measured by the above-mentioned method (inhibitory rate of the signal value at 1 μM test compound relative to control) are shown below.

Assay [4] deals with A2780 cells. Description: In vitro proliferation suppression test (CellTiter-Glo). It counts as cell-based, human. The following applies: Homo sapiens, 72 h, A2780 cell proliferation inhibitory rate at 1 μM test compound, three days. The procedure, abridged: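 A2780 cells in RPMI1640 with 10% FBS were exposed to 1 μM compound for three days at 37° C, 5% CO2. CellTiter-Glo luminescence read; inhibition (%) calculated relative to wells without compound.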
(In general: ATP-based viability assays read luminescence as a measure of living cells.)

The target of assay [5] is T1, CDK12/CycK complex. Nature of the assay: Measurement of CDK12 inhibitory activity by binding assay (BODIPY-FL labeled AT-7519 high concentration conditions, 1320 nM). The following applies: inhibitory rate against CDK12 at 1 μM test compound, 1320 nM BODIPY-FL-labeled AT-7519, 8 nM CDK12/CycK. Summed up: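 His-tagged CDK12/CycK (8 nM) was incubated with test compound, BODIPY-FL-AT-7519 tracer (1320 nM), Tb-streptavidin (0.2 nM) and biotin-anti-His antibody (0.4 nM) for 120 min at room temperature. TR-FRET ratio (BODIPY-FL/Tb) gave % inhibition versus no-compound control and 30 μM AT-7519 blank; compounds tested at 1 μM.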

Assay [6] has as its system Human breast cancer cells SUM149PT. Nature of the assay: Antitumor action on SUM149PT cells tumor-bearing model. It counts as in vivo. The note with it: 60 mg/kg orally two times per day for 2 weeks; SUM149PT subcutaneous transplant in BALB/cAJcl-nu/nu mice; average tumor volume increase ratio vs control group. Here is the method:
Experimental Example 6: Antitumor Action on SUM149PT CELLS Tumor-Bearing Model
Human breast cancer cells SUM149PT were suspended in a solution of Matrigel (BD BIOSCIENCES):HBSS (Thermo Fisher Scientific)=1:1, and subcutaneously transplanted at 3×10^6 cells to the abdomen of BALB/cAJcl-nu/nu (CLEA Japan, Inc.). The tumor diameter of the engrafted tumor was measured and the tumor volume was calculated by the following formula. Tumor volume=major axis×minor axis×minor axis×(1/2)
Individuals having a tumor grown to a volume of about 120 mm^3 were selected, and 5 mice per group were used for the experiment. A suspension of the test compound in 0.5% methylcellulose solution (FUJIFILM Wako Pure Chemical Corporation) was orally administered at a dose of 60 mg/kg (10 mL/kg) two times per day for 2 weeks. The tumor volume was measured over time one day before the start of the administration, and every 4 days from day 3. The next day of the completion of medication for 14 days, the tumor diameter was finally measured and the tumor volume was calculated. The tumor proliferation rate of the test compound administration group in comparison with the control administration group was taken as an average tumor volume increase ratio T/C and calculated by the following formula. […]

T1 sequence (Q9NYV4 whole entry, species assumed): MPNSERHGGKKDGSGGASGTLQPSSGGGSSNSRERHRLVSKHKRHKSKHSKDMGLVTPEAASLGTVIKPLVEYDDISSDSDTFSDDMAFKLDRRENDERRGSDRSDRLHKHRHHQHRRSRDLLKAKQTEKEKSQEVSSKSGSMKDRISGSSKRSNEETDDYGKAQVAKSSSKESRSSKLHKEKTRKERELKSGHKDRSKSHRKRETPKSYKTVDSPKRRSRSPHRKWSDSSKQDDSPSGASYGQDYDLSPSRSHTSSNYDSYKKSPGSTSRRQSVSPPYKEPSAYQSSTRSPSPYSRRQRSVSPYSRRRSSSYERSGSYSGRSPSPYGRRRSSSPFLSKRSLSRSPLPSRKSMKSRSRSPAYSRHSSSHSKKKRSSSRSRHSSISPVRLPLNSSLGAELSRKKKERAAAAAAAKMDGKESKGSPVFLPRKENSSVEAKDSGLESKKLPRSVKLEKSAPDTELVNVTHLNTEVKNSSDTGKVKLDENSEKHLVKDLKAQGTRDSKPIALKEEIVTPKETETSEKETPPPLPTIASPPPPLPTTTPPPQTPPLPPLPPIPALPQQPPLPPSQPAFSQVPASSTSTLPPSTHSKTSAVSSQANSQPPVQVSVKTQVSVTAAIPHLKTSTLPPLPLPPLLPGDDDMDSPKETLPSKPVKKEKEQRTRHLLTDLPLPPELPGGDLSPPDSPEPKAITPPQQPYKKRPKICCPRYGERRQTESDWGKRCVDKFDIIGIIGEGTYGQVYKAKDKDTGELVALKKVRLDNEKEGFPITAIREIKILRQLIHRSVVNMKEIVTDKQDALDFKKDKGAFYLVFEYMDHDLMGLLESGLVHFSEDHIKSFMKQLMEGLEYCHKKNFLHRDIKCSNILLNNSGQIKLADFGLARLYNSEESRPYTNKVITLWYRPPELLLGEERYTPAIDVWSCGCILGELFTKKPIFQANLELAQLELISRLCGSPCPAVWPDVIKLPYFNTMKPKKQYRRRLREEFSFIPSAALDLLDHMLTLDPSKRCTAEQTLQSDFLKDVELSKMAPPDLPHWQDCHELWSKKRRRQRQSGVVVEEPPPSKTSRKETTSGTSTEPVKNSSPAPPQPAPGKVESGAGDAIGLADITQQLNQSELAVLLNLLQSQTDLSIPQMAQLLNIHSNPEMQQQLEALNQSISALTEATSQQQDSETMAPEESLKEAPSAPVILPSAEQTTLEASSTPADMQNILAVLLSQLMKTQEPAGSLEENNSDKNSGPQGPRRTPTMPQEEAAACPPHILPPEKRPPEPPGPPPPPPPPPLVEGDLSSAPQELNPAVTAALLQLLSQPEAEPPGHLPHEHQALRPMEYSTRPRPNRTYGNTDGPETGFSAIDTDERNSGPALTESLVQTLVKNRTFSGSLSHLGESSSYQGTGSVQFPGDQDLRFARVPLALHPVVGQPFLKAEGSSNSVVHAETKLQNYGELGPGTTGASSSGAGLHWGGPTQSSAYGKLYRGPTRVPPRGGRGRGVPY
T1 sequence (O75909 whole entry partner, species assumed): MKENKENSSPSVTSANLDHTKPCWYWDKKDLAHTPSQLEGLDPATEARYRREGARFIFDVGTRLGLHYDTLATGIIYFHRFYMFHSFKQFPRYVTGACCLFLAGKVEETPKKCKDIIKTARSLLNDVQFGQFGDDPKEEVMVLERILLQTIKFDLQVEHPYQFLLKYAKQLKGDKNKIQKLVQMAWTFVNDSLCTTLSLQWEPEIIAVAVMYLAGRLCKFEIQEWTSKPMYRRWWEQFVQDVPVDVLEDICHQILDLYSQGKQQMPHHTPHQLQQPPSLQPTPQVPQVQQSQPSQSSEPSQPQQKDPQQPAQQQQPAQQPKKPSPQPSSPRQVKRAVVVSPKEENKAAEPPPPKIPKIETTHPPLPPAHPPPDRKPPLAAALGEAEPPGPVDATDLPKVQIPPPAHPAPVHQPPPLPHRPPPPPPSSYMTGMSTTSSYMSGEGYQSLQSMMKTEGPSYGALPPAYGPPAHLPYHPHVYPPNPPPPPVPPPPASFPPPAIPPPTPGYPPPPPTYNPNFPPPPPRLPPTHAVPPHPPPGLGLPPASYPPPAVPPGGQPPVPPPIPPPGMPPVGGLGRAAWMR
Chain of CDK12/CycK enzyme (Q9NYV4 whole entry, species assumed): as the sequence (Q9NYV4 whole entry, species assumed) above
Chain of CDK12/CycK enzyme (O75909 whole entry partner, species assumed): as the sequence (O75909 whole entry partner, species assumed) above

A word on the inhibition: it is the drop in the measured response relative to a control, in per cent. As to `COc1ncc(-c2cnc(N(C(=O)OCc3ccccc3)[C@H]3CC[C@H](Nc4ncc(C#N)c(NC5COC5)n4)CC3)nc2)cn1` [Example 608, benzyl (trans-4-((5-cyano-4-(oxetan-3-ylamino)pyrimidin-2-yl)amino)cyclohexyl) (2′-methoxy-5,5′-bipyrimidin-2-yl)carbamate], the inhibition at 1 µM in assay [1] worked out at 98%; in assay [2], 102%; in assay [3], 44%; in assay [4], 99%.
Take `COc1ncc(-c2ccc(N(C(=O)NCc3ccccc3)[C@H]3CC[C@H](Nc4ncc(C#N)c(OC5COC5)n4)CC3)nc2)cn1` [Example 609, 3-benzyl-1-(trans-4-((5-cyano-4-(oxetan-3-yloxy)pyrimidin-2-yl)amino)cyclohexyl)-1-(5-(2-methoxypyrimidin-5-yl)pyridin-2-yl)urea]: the inhibition at 1 µM in assay [1] came to 99%; in assay [2], 107%; in assay [3], 41%; in assay [4], 99%.
With `COc1ncc(-c2ccc(N(C(=O)NCc3ccccn3)[C@H]3CC[C@H](Nc4ncc(C(F)(F)F)c(OC5COC5)n4)CC3)nc2)cn1` [Example 610, 1-(5-(2-methoxypyrimidin-5-yl)pyridin-2-yl)-1-(trans-4-((4-(oxetan-3-yloxy)-5-(trifluoromethyl)pyrimidin-2-yl)amino)cyclohexyl)-3-(pyridin-2-ylmethyl)urea], the inhibition at 1 µM in assay [1] came out at 103%; in assay [2] it was 99%; in assay [3], 49%; in assay [4], 98%.
For `COc1ncc(-c2cnc(N(C(=O)OCc3ccccc3)[C@H]3CC[C@H](Nc4ncc(C#N)c(N5CCCC(O)CC5)n4)CC3)nc2)cn1` (stereo partly drawn) [Example 611, benzyl (trans-4-((5-cyano-4-(4-hydroxyazepan-1-yl)pyrimidin-2-yl)amino)cyclohexyl) (2′-methoxy-5,5′-bipyrimidin-2-yl)carbamate], in that order: 101%, 101%, 48% and 97%.
Take `COc1ncc(-c2cnc(N(C(=O)NCc3ccccc3)[C@H]3CC[C@H](Nc4ncc(C(F)(F)F)c(OC5COC5)n4)CC3)cn2)cn1` [Example 612, 3-benzyl-1-(5-(2-methoxypyrimidin-5-yl)pyrazin-2-yl)-1-(trans-4-((4-(oxetan-3-yloxy)-5-(trifluoromethyl)pyrimidin-2-yl)amino)cyclohexyl)urea]: the inhibition at 1 µM in assay [5] was determined as 100%; in assay [4], 97%. Further, the “T/C (%)” value in assay [6] is given as −22%.
